The record followed here is patent publication US20230312550A1, “N-(2-(4-CYANOTHIAZOLIDIN-3-YL)-2-OXOETHYL)-QUINOLINE-4-CARBOXAMIDES” (AstraZeneca AB, priority 2020, published 2023).

Data set [1] has as its target hFAP (M39-A757) (Homo sapiens (Human), UniProt Q12884). In words: hFAP binding assay (surface plasmon resonance). Conditions: SPR, 20° C.; for hFAP Binding assay k(off) / hFAP Binding assay k(on): single cycle kinetics; for Kd: n = 1 or geometric mean n = 2-4.
Data set [2] in a line: Metabolic stability in human liver microsomes (HLM). The following applies: for microsomal CLint: human.
Procedure: Metabolic stability in HLM was measured as described in J Comput Aided Mol Des 2015, 29, 795.
A short description of data set [3]: Caco-2 cell permeability. Conditions: human.
Procedure: Caco-2 cell permeability was measured as described in Mol Pharm 2017, 14, 1601.
Data set [4] in a line: Kinetic solubility.
Procedure: Kinetic solubility was measured as described in Comput Aided Mol Des 2015, 29, 795.
Data set [5] in a line: Metabolic stability in rat hepatocytes (rHep). Conditions: n = 1 or geometric mean of n = 2-3.
The target in data set [6] is Prolyl endopeptidase, Prolyl Oligopeptidase (hPREP) (Homo sapiens (Human), UniProt P48147). In words: hPrep inhibition assay. Conditions: hPREP 0.6 nM, Z-Gly-Pro-amino-methylcoumarin 50 μM; read-out: PREP IC50. The format is biochemical. Summed up:
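Fluorogenic read-out (340 nm excitation, 460 nm emission) after 20 min at rt, using 50 μM final Z-Gly-Pro-aminomethylcoumarin and 0.6 nM final enzyme, following 15 min compound preincubation. Buffer pH 7.5 with glutathione and Triton X-100. IC50 via one-site model on % inhibition vs log concentration.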

Data set [7] has as its target human Fibroblast activation protein alpha (hFAP) (Homo sapiens (Human), UniProt Q12884). In words: hFAP inhibition assay (tight binders). Further: hFAP 2.4 pM. Conditions: Ala-Pro-AMC 20 μM, n = 1 or geometric mean n = 2-6. The class given is biochemical. As to the method:
The plates were read on a PHERAstar® reader with excitation 340 nm and emission 460 nm. Data were analyzed in Genedata Screener®. IC50 values were determined by plotting % inhibition versus log compound concentration and using a one site dose response model.

The mark [8] stands for this setting: HLM CLint, n = 1 or average of n = 2-3.
[9] abbreviates: kinetic from dmso stock, Solubility, kinetic solubility, n = 1 or average of n = 2-3.
Where [10] appears, read: kinetic solubility, n = 1 or average of n = 2-3.

Molecules are shown by their SMILES. In brackets after ≈: the same amount, converted by molar mass.

hFAP (M39-A757), sequence (Q12884 39-757): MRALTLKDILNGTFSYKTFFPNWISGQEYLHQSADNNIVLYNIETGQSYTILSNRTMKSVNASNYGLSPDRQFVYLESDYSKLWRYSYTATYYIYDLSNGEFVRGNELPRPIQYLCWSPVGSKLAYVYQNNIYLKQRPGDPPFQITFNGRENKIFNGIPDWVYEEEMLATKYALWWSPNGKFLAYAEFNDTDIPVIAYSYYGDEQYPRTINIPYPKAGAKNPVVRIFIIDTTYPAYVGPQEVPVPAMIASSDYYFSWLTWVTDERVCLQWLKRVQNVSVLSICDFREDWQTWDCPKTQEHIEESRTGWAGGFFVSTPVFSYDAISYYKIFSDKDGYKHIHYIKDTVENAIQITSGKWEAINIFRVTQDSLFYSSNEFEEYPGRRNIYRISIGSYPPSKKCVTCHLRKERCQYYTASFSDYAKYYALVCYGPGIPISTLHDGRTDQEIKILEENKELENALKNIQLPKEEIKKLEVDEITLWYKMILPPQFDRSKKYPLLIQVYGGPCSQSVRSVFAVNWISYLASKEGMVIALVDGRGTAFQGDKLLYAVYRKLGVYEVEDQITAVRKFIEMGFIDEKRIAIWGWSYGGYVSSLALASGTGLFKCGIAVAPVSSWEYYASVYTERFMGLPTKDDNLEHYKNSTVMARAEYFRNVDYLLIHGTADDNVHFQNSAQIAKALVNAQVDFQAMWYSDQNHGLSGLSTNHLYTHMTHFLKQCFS
human Fibroblast activation protein alpha (hFAP), sequence (Q12884 38-760): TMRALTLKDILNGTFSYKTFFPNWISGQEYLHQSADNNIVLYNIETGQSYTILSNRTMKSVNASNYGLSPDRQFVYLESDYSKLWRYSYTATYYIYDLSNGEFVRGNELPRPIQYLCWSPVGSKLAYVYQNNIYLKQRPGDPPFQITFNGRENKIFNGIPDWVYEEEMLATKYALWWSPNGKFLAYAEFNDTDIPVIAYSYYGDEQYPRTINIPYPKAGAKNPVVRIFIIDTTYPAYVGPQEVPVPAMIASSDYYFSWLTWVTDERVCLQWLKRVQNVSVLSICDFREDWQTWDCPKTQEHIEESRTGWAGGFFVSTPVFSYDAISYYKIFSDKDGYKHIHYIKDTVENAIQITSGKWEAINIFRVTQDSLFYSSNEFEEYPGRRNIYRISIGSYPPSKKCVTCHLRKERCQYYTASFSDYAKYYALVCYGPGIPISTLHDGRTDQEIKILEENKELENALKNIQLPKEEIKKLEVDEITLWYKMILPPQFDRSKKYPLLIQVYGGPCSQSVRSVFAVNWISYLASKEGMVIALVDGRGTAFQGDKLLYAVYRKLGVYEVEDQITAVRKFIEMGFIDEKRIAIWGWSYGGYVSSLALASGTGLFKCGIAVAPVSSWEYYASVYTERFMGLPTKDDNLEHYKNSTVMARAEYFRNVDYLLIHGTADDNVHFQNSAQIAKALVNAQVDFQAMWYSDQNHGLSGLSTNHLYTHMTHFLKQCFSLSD
Prolyl endopeptidase, Prolyl Oligopeptidase (hPREP), sequence (P48147 whole entry): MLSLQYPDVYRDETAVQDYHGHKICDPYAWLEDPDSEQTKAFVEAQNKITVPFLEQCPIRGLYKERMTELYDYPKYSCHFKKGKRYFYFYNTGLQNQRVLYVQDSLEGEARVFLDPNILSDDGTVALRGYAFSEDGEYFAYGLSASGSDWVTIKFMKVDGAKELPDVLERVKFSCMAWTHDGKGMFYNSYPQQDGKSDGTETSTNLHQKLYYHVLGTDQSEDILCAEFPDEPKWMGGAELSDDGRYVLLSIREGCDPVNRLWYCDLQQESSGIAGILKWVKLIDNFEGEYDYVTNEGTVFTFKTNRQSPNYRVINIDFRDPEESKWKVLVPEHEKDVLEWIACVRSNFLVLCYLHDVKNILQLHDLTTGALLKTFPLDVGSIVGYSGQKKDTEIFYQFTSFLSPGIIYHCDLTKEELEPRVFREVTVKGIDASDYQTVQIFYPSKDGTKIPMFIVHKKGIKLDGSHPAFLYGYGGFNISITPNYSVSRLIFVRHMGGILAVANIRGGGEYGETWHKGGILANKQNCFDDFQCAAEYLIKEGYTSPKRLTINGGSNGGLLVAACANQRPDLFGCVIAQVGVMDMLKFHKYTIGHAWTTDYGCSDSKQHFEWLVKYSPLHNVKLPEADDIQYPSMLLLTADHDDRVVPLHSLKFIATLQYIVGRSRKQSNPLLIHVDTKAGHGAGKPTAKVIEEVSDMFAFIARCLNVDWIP

In the case of `CCC1(O)CN(c2ccc3nccc(C(=O)NCC(=O)N4CSC[C@H]4C#N)c3c2)C1` [Example 154, (R)—N-(2-(4-Cyanothiazolidin-3-yl)-2-oxoethyl)-6-(3-ethyl-3-hydroxy-azetidin-1-yl)quinoline-4-carboxamide], in data set [1], the “hFAP Binding assay k(off)” value amounted to 0.000054 s⁻¹, the “hFAP Binding assay k(on)” value amounted to 910000 M⁻¹ s⁻¹ and the Kd was 0.059 nM. The compound also came in with a microsomal CLint in data set [2] (setting [8]) of less than 3 µL/min/mg. Besides, in data set [3], the Papp A→B stood at 0.32 ×10⁻⁶ cm/s, the Papp B→A stood at 12 ×10⁻⁶ cm/s and the efflux ratio was found to be 37. The solubility in data set [4] (setting [9]) amounted to 850 µM (≈ 362 µg/mL). The “rHep CLint” value in data set [5] turned out to be 2.7 μL/min/1E6. Moreover, the IC50 in data set [6] came to 590 nM. The compound further registered an IC50 in data set [7] of 0.092 nM.

As for `CC(C)C1(O)CCN(c2ccc3nccc(C(=O)NCC(=O)N4CSC[C@H]4C#N)c3c2)CC1` [Example 192, (R)—N-(2-(4-Cyanothiazolidin-3-yl)-2-oxoethyl)-6-(4-hydroxy-4-isopropyl-piperidin-1-yl)quinoline-4-carboxamide], in data set [1], the “hFAP Binding assay k(off)” value was found to be 0.000014 s⁻¹, the “hFAP Binding assay k(on)” value was 1300000 M⁻¹ s⁻¹ and the Kd came to 0.0077 nM. Besides, in data set [2] (setting [8]), the microsomal CLint worked out at 28 µL/min/mg. In data set [3], the Papp A→B was 0.51 ×10⁻⁶ cm/s, the Papp B→A is 39 ×10⁻⁶ cm/s and the efflux ratio was 76. Also, the concentration in solution in data set [4] (setting [9]) (solubility) came to 530 µM (≈ 248 µg/mL). Besides, the “rHep CLint” value in data set [5] came out at 2.9 μL/min/1E6. Also, in data set [6], the IC50 is 200 nM. The same compound showed an IC50 in data set [7] of 0.051 nM.

`N#C[C@@H]1CSCN1C(=O)CNC(=O)c1ccnc2ccc(N3CCC(=O)CC3)cc12` [Example 230, (R)—N-(2-(4-cyanothiazolidin-3-yl)-2-oxoethyl)-6-(4-oxopiperidin-1-yl)quinoline-4-carboxamide] yielded a microsomal CLint in data set [2] (setting [8]) of less than 3 µL/min/mg. In data set [3], the Papp was 2 ×10⁻⁶ cm/s, the Papp A→B came to 34 ×10⁻⁶ cm/s and the Papp B→A stood at 17 ×10⁻⁶ cm/s. Moreover, in data set [4] (setting [9]), the solubility is greater than 1000 µM. Also, the “rHep CLint” value in data set [5] amounted to 2.8 μL/min/1E6. Also, in data set [6], the IC50 came out at 600 nM. For the same compound, the IC50 in data set [7] came to 0.078 nM.

In data set [2] (setting [8]), `C[C@@]1(O)CCN(c2ccc3nccc(C(=O)NCC(=O)N4CSC[C@H]4C#N)c3c2)C1` [Example 167, N-(2-((R)-4-Cyanothiazolidin-3-yl)-2-oxoethyl)-6-((R)-3-hydroxy-3-methylpyrrolidin-1-yl)quinoline-4-carboxamide] came in with a microsomal CLint of less than 3 µL/min/mg. Moreover, in data set [3], the Papp A→B is 0.13 ×10⁻⁶ cm/s, the Papp B→A was found to be 9.5 ×10⁻⁶ cm/s and the efflux ratio turned out to be 74. This compound also yielded a solubility in data set [4] (setting [9]) of 240 µM (≈ 102 µg/mL). The “rHep CLint” value in data set [5] is listed as less than 1 μL/min/1E6. The IC50 in data set [6] was 1000 nM. In addition, the IC50 in data set [7] was determined as 0.091 nM.

As to `C[C@@H]1CN(c2ccc3nccc(C(=O)NCC(=O)N4CSC[C@H]4C#N)c3c2)C[C@H]1C` (single isomer, unassigned) [Example 225, N-(2-((R)-4-Cyanothiazolidin-3-yl)-2-oxoethyl)-6-((3R*,4R*)-3,4-dimethylpyrrolidin-1-yl)quinoline-4-carboxamide], the Kd in data set [1] was determined as 0.077 nM. For the same compound, the microsomal CLint in data set [2] (setting [8]) was 110 µL/min/mg. In addition, the solubility in data set [4] (setting [10]) is 2.2 µM (≈ 0.932 µg/mL). Also, in data set [5], the “rHep CLint” value came out at 37 μL/min/1E6. Moreover, the IC50 in data set [6] was 470 nM; in data set [7] it was 0.11 nM.

With `N#C[C@@H]1CSCN1C(=O)CNC(=O)c1ccnc2ccc(N3CC(OC(F)F)C3)cc12` [Example 136, (R)—N-(2-(4-Cyanothiazolidin-3-yl)-2-oxoethyl)-6-(3-(difluoromethoxy)-azetidin-1-yl)quinoline-4-carboxamide], in data set [1], the “hFAP Binding assay k(off)” value came to 0.000050 s⁻¹, the “hFAP Binding assay k(on)” value turned out to be 2000000 M⁻¹ s⁻¹ and the Kd stood at 0.036 nM. The microsomal CLint in data set [2] (setting [8]) is less than 3 µL/min/mg. The concentration in solution in data set [4] (setting [9]) (solubility) was 21 µM (≈ 9.4 µg/mL). The “rHep CLint” value in data set [5] is 4.8 μL/min/1E6. In data set [6], the IC50 is 300 nM. The IC50 in data set [7] stood at 0.061 nM.

With `CC(C)C1CN(c2ccc3nccc(C(=O)NCC(=O)N4CSC[C@H]4C#N)c3c2)C1` [Example 148, (R)—N-(2-(4-Cyanothiazolidin-3-yl)-2-oxoethyl)-6-(3-isopropylazetidin-1-yl)quinoline-4-carboxamide], in data set [1], the “hFAP Binding assay k(off)” value amounted to 0.0002 s⁻¹; the “hFAP Binding assay k(on)” value stood at 6600000 M⁻¹ s⁻¹; the affinity, expressed as Kd, was 0.031 nM. The same compound returned a microsomal CLint in data set [2] (setting [8]) of 53 µL/min/mg. For the same compound, the concentration in solution in data set [4] (setting [9]) (solubility) came to 3.4 µM (≈ 1.44 µg/mL). Moreover, in data set [5], the “rHep CLint” value turned out to be 12 μL/min/1E6. In addition, the IC50 in data set [6] was determined as 420 nM. The same compound had an IC50 in data set [7] of 0.059 nM.

In data set [1], `C[C@@H]1CN(c2ccc3nccc(C(=O)NCC(=O)N4CSC[C@H]4C#N)c3c2)C[C@H]1C` (single isomer, unassigned) [Example 226, N-(2-((R)-4-Cyanothiazolidin-3-yl)-2-oxoethyl)-6-((3R*,4R*)-3,4-dimethylpyrrolidin-1-yl)quinoline-4-carboxamide] came in with a Kd of 0.044 nM. For the same compound, in data set [2] (n = 1 or average of n = 2-3), the “HLM CLint” value was 94 µL/min/mg. For the same compound, in data set [4] (setting [10]), the solubility turned out to be 4.5 µM (≈ 1.91 µg/mL). Further, the “rHep CLint” value in data set [5] turned out to be 44 μL/min/1E6. The half-maximal inhibitory concentration (IC50) in data set [6] was 660 nM; in data set [7], 0.2 nM.

In data set [1], `N#C[C@@H]1CSCN1C(=O)CNC(=O)c1ccnc2ccc(-n3ncc4c3CCCC4)cc12` [Example 114, (R)—N-(2-(4-Cyanothiazolidin-3-yl)-2-oxoethyl)-6-(4,5,6,7-tetrahydro-1H-indazol-1-yl)quinoline-4-carboxamide] displayed a Kd of 0.062 nM. The compound further came in with a microsomal CLint in data set [2] (setting [8]) of 170 µL/min/mg. The compound further had a solubility in data set [4] (setting [9]) of 4.5 µM (≈ 2.01 µg/mL). The “rHep CLint” value in data set [5] was 36 μL/min/1E6. Further, the IC50 in data set [6] was 230 nM; in data set [7] it was 0.072 nM.

As for `N#C[C@@H]1CSCN1C(=O)CNC(=O)c1ccnc2ccc(N3CC4(CC(C(F)(F)F)C4)C3)cc12` [Example 150, (R)—N-(2-(4-Cyanothiazolidin-3-yl)-2-oxoethyl)-6-(6-(trifluoromethyl)-2-azaspiro[3.3]heptan-2-yl)quinoline-4-carboxamide], in data set [1], the “hFAP Binding assay k(off)” value was 0.000043 s⁻¹, the “hFAP Binding assay k(on)” value was found to be 280000 M⁻¹ s⁻¹ and the Kd was 0.16 nM. The compound further gave an intrinsic metabolic clearance (microsomal CLint) in data set [2] of 49 µL/min/mg. In data set [4] (kinetic from dmso stock), this compound came in with a solubility of 77 µM (≈ 37.7 µg/mL). Also, the “rHep CLint” value in data set [5] stood at 5 μL/min/1E6. Also, in data set [6], the IC50 worked out at 2000 nM. Moreover, in data set [7], the IC50 came out at 0.5 nM.

For `N#C[C@@H]1CSCN1C(=O)CNC(=O)c1ccnc2ccc(N3CCC[C@H]3C3CC3)cc12` (single isomer, unassigned) [Example 200, N-(2-((R)-4-Cyanothiazolidin-3-yl)-2-oxoethyl)-6-((R*)-2-cyclopropyl-pyrrolidin-1-yl)quinoline-4-carboxamide], in data set [1], the “hFAP Binding assay k(off)” value is 0.00023 s⁻¹, the “hFAP Binding assay k(on)” value was 2500000 M⁻¹ s⁻¹ and the Kd turned out to be 0.09 nM. In data set [2] (setting [8]), this compound showed a microsomal CLint greater than 300 µL/min/mg. In data set [4] (setting [9]), the solubility was 81 µM (≈ 35.3 µg/mL). Moreover, the “rHep CLint” value in data set [5] is given as greater than 300 μL/min/1E6. Besides, the IC50 in data set [6] amounted to 130 nM. For the same compound, inhibition in data set [7] was half-maximal at 0.24 nM (IC50).

For `CCC1(OC)CCN(c2ccc3nccc(C(=O)NCC(=O)N4CSC[C@H]4C#N)c3c2)CC1` [Example 191, (R)—N-(2-(4-Cyanothiazolidin-3-yl)-2-oxoethyl)-6-(4-ethyl-4-methoxy-piperidin-1-yl)quinoline-4-carboxamide], in data set [1], the “hFAP Binding assay k(off)” value came to 0.000033 s⁻¹, the “hFAP Binding assay k(on)” value stood at 1500000 M⁻¹ s⁻¹ and binding was put at a Kd of 0.022 nM. Also, in data set [2] (setting [8]), the microsomal CLint turned out to be 94 µL/min/mg. Also, the concentration in solution in data set [4] (setting [9]) (solubility) was 400 µM (≈ 187 µg/mL). The “rHep CLint” value in data set [5] is recorded as 5.3 μL/min/1E6. Moreover, in data set [6], the IC50 is 550 nM. Further, in data set [7], inhibition was half-maximal at 0.038 nM (IC50).

For `N#C[C@@H]1CSCN1C(=O)CNC(=O)c1ccnc2ccc(N3CCC(F)(c4ccccc4)CC3)cc12` [Example 223, (R)—N-(2-(4-Cyanothiazolidin-3-yl)-2-oxoethyl)-6-(4-fluoro-4-phenyl-piperidin-1-yl)quinoline-4-carboxamide], in data set [1], the “hFAP Binding assay k(off)” value worked out at 0.000026 s⁻¹, the “hFAP Binding assay k(on)” value was determined as 2500000 M⁻¹ s⁻¹ and binding was put at a Kd of 0.01 nM. The compound also returned a microsomal CLint in data set [2] (setting [8]) of 57 µL/min/mg. Further, in data set [4] (setting [9]), the solubility was less than 1.6 µM. Besides, the “rHep CLint” value in data set [5] was found to be 51 μL/min/1E6. In addition, in data set [6], the IC50 stood at 86 nM. The IC50 in data set [7] came to 0.076 nM.
